Experiments:
mice = assay: Acute forced swim test (FST); type: in vivo; conditions: 30 and 60 mg kg−1
Method: Mice were placed individually in a transparent glass cylinder (25 cm high, 10 cm wide) filled with water (temperature 23–25 °C) to a depth of 10 cm, and prevented from making contact with the bottom. Mice behaviors were videotaped from each side. The observation period lasted for 6 min, with the final 4 min used to measure immobile behavior, which was processed using the AnyMaze Tracking System (Stoelting).

Kir4.1 cKO mice = assay: NSFT in astrocyte-specific Kir4.1 cKO mice; type: in vivo; conditions: 10 mg kg−1 i.p.
Text: Male C57BL/6J mice (6–10 weeks old) and male CD‐1 mice (4–6 months old) were purchased from Shanghai Shengchang Biotechnology Co., Ltd. Kcnj10 ^flox/flox mice were generated by the Cyagen Company (Suzhou, China). The Cas9 protein, two gRNAs (gRNA‐A1: […], gRNA‐A2: […]) and a donor vector containing two loxP sequences flanking exon 2 of mouse Kcnj10 were co‐injected into fertilized eggs. The embryos were transferred to recipient female mice to obtain F0 mice. The genotype was confirmed by PCR using two pairs of primers (F1: 5’‐[…]‐3’, R1: 5’‐[…]‐3’; F2: 5’‐[…]‐3’, R2: 5’‐[…]‐3’) and sequencing. The F0 founder mice were mated with C57BL/6J mice to produce heterozygous F1 offspring. Subsequent intercrosses of F1 heterozygous mice ultimately produced F2 homozygous mice with the Kcnj10 ^flox/flox genotype. Tamoxifen‐induced conditional transgenic mice with Kir4.1 deletion in astrocytes were generated by crossing Aldh1l1‐Cre/ERT2 mice with homozygous Kcnj10 ^flox/flox mice.^[ [32] ^] […]
The mice were individually housed in new cages and deprived of food for 24 h. […] The latency to start chewing food was recorded within 5 min. Immediately thereafter, the mice were placed back in their home cage with pre‐measured food, and the amount consumed in the next 5 min was used as a baseline to account for appetite changes that might affect the outcome.

hERG = target: T1, hERG (Homo sapiens, UniProt Q12809); assay: hERG inhibition (QPatch, CHO-hERG cells); type: cell-based
T1 construct: expressed in transfected cells; host or cells: CHO-hERG
T1 sequence (Q12809 whole entry): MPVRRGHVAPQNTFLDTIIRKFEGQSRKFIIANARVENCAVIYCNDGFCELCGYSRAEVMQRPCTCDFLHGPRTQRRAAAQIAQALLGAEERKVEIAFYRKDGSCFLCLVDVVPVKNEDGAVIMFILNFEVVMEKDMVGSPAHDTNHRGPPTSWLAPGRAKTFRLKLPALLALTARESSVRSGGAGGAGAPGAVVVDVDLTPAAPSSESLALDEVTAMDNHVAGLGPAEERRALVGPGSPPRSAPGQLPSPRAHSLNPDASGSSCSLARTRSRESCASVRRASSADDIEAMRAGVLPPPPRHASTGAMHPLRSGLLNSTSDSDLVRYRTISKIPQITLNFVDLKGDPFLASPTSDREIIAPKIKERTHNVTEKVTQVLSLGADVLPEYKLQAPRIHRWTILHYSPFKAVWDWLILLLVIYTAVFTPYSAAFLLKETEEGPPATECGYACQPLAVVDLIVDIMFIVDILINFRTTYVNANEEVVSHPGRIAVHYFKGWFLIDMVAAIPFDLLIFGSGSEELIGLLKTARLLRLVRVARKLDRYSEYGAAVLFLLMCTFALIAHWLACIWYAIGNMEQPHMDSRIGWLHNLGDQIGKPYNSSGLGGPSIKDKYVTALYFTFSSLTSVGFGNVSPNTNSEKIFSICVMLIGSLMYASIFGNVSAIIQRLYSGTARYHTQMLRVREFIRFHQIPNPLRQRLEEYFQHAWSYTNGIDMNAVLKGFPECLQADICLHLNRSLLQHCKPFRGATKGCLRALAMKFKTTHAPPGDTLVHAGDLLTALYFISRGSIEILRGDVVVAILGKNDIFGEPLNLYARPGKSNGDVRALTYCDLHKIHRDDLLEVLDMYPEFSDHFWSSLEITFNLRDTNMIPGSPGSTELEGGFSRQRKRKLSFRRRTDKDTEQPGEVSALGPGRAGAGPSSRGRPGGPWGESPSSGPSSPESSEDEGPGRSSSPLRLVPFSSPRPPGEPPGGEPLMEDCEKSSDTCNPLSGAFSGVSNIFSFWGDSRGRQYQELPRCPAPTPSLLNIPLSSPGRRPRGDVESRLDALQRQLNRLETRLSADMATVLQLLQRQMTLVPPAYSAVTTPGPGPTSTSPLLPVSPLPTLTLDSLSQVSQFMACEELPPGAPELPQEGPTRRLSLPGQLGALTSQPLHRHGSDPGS
Method: CHO‐hERG cells were cultured to 60–80% confluency in 175‐cm^2 flasks, washed with PBS, and digested with detachin. After centrifugation, the cells were resuspended in medium at 2–5×10^6 mL^−1. Patch‐clamp recordings were performed using a QPatch with extracellular solution (140 NaCl, 5 KCl, 2 CaCl2, 1 MgCl2, 10 HEPES, 10 glucose, pH 7.4) and intracellular solution (145 KCl, 1 MgCl2, 5 EGTA, 10 HEPES, 5 Mg‐ATP, pH 7.3). Cells were clamped at −80 mV, stimulated with a 50 ms pre‐pulse to −50 mV, followed by 2 s depolarization to +40 mV, and 2 s repolarization to −50 mV, repeated every 5 s. After baseline recording, the test compound at various concentrations or 300 nM cisapride (positive control) was applied.

Kir2.2 = target: T2, Kir2.2 (Homo sapiens, UniProt Q14500); assay: Whole-cell patch clamp, Kir2.2; type: cell-based; conditions: mean ± SEM
T2 construct: host or cells: CHO-K1
T2 sequence (Q14500 whole entry): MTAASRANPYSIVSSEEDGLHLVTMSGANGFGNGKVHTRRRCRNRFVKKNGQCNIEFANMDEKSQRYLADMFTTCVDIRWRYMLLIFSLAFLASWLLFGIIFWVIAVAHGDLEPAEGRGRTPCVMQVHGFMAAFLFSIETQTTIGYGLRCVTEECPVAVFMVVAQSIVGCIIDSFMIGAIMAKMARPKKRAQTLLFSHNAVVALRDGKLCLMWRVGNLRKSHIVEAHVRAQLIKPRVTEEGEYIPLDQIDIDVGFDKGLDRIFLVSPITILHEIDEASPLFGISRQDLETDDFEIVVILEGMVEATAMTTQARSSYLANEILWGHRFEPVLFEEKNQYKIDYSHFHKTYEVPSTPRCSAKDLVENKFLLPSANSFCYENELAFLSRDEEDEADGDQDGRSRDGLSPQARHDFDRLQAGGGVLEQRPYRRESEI
Method: Plasmids encoding WT human potassium channels Kir1.1, Kir2.1, Kir2.2, Kir4.1, and Kir4.2 were obtained from the Beijing Genomics Institute. All point mutations were constructed using the QuickChange II Site‐Directed Mutagenesis Kit (Stratagene) and subsequently verified by sequencing.
CHO‐K1 cells were maintained in DMEM/F12 growth medium containing 10% fetal bovine serum. Plasmids encoding the target genes (3600 ng) and enhanced green fluorescent protein (400 ng) were cotransfected into cells using Lipofectamine 2000 (Invitrogen) in accordance with the manufacturer's instructions. Cells were seeded onto poly‐d‐lysine (PDL)‐coated glass coverslips 1 h prior to electrophysiological recordings. […]
Whole‐cell patch‐clamp recordings were obtained either in transiently transfected CHO‐K1 cells or in primary cultured astrocytes at room temperature using standard patch‐clamp techniques with an Axopatch‐700B amplifier (Axon Instruments). […] Macroscopic currents generated by expressed potassium channels were recorded under the voltage‐clamp conditions with an internal pipette solution composed of (in mM): 140 KCl, 5 NaCl, 1 CaCl2, 1 MgCl2, 10 HEPES, and 10 EGTA, pH 7.2 adjusted with KOH. […] Astrocytic resting membrane potentials were recorded under current‐clamp conditions (I = 0 pA) using standard internal and external solutions, determined immediately after achieving whole‐cell mode.

**Q.** With `c1ccc2c(c1)oc1ccc(Nc3ccnc(NCCCN4CCOCC4)n3)cc12` [JX3212, N^4-(dibenzo[b,d]furan-2-yl)-N^2-(3-morpholinopropyl)pyrimidine-2,4-diamine] as the compound, how does the “immobility time in acute FST (in words)” value (mice) read?
**A.** The value was “significantly reducing immobility time”.

**Q.** And the “NSFT latency in Kir4.1 cKO mice vs vehicle (in words)” value (Kir4.1 cKO mice)?
**A.** The value was “comparable latencies”.

**Q.** What about the IC50 (hERG) of the same compound?
**A.** The IC50 was 1.02 µM.

**Q.** What about the inhibition at 3 µM (Kir2.2) of the same compound?
**A.** The inhibition at 3 µM was 14.3 ± 8.36%.
